Results as given in ChEMBL document CHEMBL1201862, “PubChem BioAssay data set” (2004).
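Grown in 96-well plates, cells were treated for 48 hours with each compound at five concentrations. Insufficient inhibition: endpoint recorded as highest concentration tested. GI50 = concentration required for 50% inhibition of growth.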 Calls of active or inactive are those of the source. No stated cut-off is given here; in the data, active = GI50 up to about 1.1 µM and inactive = higher. Non-standard residues stand in square brackets, D forms with d. Residues, ends and D or L forms follow the SMILES beside them. *: point of attachment. X30 = COC1=CC(=O)N(C(=O)[C@@H](O*)C(C)C)[C@H]1Cc1ccccc1; NMeL = CN[C@@H](CC(C)C)C(=O)O; Cbz = O=C(OCc1ccccc1)*

Experiments:
Test in all cases: NCI-60 cell line screen, 48 h
[1] = tested on: PC-3
[2] = tested on: SW-620
[3] = tested on: COLO 205
[4] = tested on: SNB-75
[5] = tested on: MDA-N
[6] = tested on: NCI/ADR-RES
[7] = tested on: HOP-62
[8] = tested on: MCF7
[9] = tested on: RXF 393
[10] = tested on: U-251
[11] = tested on: BT-549
[12] = tested on: LOX IMVI
[13] = tested on: Malme-3M
[14] = tested on: OVCAR-4
[15] = tested on: SK-OV-3
[16] = tested on: HOP-92
[17] = tested on: KM12
[18] = tested on: SNB-19
[19] = tested on: UACC-257
[20] = tested on: 786-0

Measured: GI50

COC1=CC(=O)N(C(=O)[C@@H](OC(=O)[C@@H]2CCCN2C(=O)[C@@H]2CCCN2C(=O)[C@H](CC(C)C)N(C)C(=O)[C@@H](NC(=O)[C@@H](NC(=O)OCc2ccccc2)C(C)C)C(C)C)C(C)C)[C@H]1Cc1ccccc1 (Cbz-VV[NMeL]PP-X30)
inactive: [1] 11.2 µM | [2] > 100 µM | [3] > 100 µM | [4] 2.37 µM | [5] > 100 µM | [6] > 100 µM | [7] 21.4 µM | [8] 56 µM | [9] 14.2 µM | [10] 24.9 µM | [11] 23.1 µM | [12] > 100 µM | [13] > 100 µM | [14] > 100 µM | [15] 31.3 µM | [16] 20.5 µM | [17] > 100 µM | [18] 28.6 µM | [19] 76 µM | [20] 23.3 µM

CN(CC(N)=O)C(=O)N(CCCl)N=O [SARCNU]
inactive: [1] > 100 µM | [2] > 100 µM | [3] > 100 µM | [4] 38.6 µM | [5] > 100 µM | [6] > 100 µM | [7] > 100 µM | [8] > 100 µM | [9] > 100 µM | [10] > 100 µM | [11] > 100 µM | [12] > 100 µM | [13] > 100 µM | [14] > 100 µM | [15] > 83.9 µM | [16] > 77.6 µM | [17] > 100 µM | [18] > 83.9 µM | [19] > 100 µM | [20] 98.4 µM
